Laboratory results reported in publication PMC5736782, “The Differential Absorption of a Series of P-Glycoprotein Substrates in Isolated Perfused Lungs from Mdr1a/1b Genetic Knockout Mice can be Attributed to Distinct Physico-Chemical Properties: an Insight into Predicting Transporter-Mediated, Pulmonary Specific Disposition” (Pharmaceutical Research, 2017).
Read-outs that look alike come from different tables or passages of the source.

Columns and labels:
mouse Mdr1a = mouse Mdr1a (Mus musculus, UniProt P21447); assay: Gentest ABC transporter membrane ATPase assay; conditions: 0–300 μM, 30 min, 37°C
Description: (§1) The Gentest ATPase assay (Corning, Germany) was used to investigate the binding kinetics of the panel of P-gp substrates against membranes constituted to display human MDR1, mouse Mdr1a, mouse Mdr1b and mouse Bcrp. The assays measure the accumulation of inorganic phosphate (absorbance at 800 nm) produced in the breakdown of ATP to ADP. […] The assays were used in accordance with the manufacturer’s protocol to calculate (GraphPad Prism) the Michaelis-Menten parameters Km and VMAX. For the assay test compounds were serially diluted to produce an assay concentration range of 0–300 μM with the kinetics of ATP turnover examined over 30 min at 37°C.

P-gp [1] = conditions: IPRL; cited from earlier work
P-gp (Mdr1a/1b) = assay: Pilot in-vivo intra-nasal instillation, lung clearance
Description: Separate mice were sacrificed (n=3) at each time-point post-instillation (5 min, 1 hr, 3 hr, 5 hr, 7 hr and 12 hr). Lung tissue was homogenised and subjected to solute extraction approaches priod to LC-MS/MS quantitation.

human MDR1 = human MDR1 (Homo sapiens, UniProt P08183); assay: Gentest ABC transporter membrane ATPase assay; conditions: ATPase, 0–300 μM, 30 min, 37°C
Description: as §1

mouse Mdr1b = mouse Mdr1b (Mus musculus, UniProt P06795); assay: Gentest ABC transporter membrane ATPase assay; conditions: 0–300 μM, 30 min, 37°C
Description: as §1

[2] = tested on: P-gp (Mdr1a/1b) in mouse intestinal segments; assay: Ussing chamber intestinal permeability, ileal segments Mdr1a/1b (+/+) vs (−/−); conditions: for Mdr1a/1b (−/−) Permeability coefficient: P-gp knockout intestinal segments; for Mdr1a/1b (−/−) Permeability coefficient / Mdr1a/1b (+/+) Permeability coefficient: mucosal to serosal, 50 μM, 180 min; for Mdr1a/1b (+/+) Permeability coefficient: wild-type intestinal segments
Description: (§2) The bathing fluid for both mucosal and serosal surfaces (3 mL volume in each chamber) comprised oxygenated Krebs-Henseleit buffer maintained at 37°C (heating block) under stirred conditions (gas flow manifold). […] Any intestinal segments presenting an initial TEER of lower than 80 Ω.cm^2 were discarded prior to the experiment, likewise any segments whose TEER decreased by more than 10% over the course of the experiment were excluded.
(§3) Thereafter permeability coefficients were determined according to Eq. 4:4 ρ=dM/dt/A^∗C0

P-gp [3] = tested on: P-gp; set-up: method as in PMID 23670704; conditions: IPRL and IPML models; cited from earlier work
[4] = Immobilised artificial membrane (IAM) chromatography; format: physicochemical; conditions: extrapolated to 100% water; mean of four experiments
Description: IAM chromatography provided an experimental measure of substrate membrane affinity and phospholipid interaction. The IAM column (Regis Technologies Inc., Hichrom, Reading, UK; IAM.PC.DD2 10 cm x 4.6 mm ID column) was run under isocratic eluting conditions with the retention of all compounds determined under three mobile phase conditions: 10%, 20% and 30% acetonitrile in water, and from which the theoretical retention time in 100% water was calculated by linear regression. LogK^IAM values were calculated according to Eq. 2:2 LogK^IAM=LogTr−T0/T0
where Tr and T0 are respectively the retention times of the substrate in 100% water and of the unretained compound, i.e. eluting within the solvent front of 75 s in all experiments.

[5] = Multi-lamellar liposome vesicle (MLV) partitioning; format: physicochemical; conditions: (C0−CS)/C0, 1 μg/mL, 4 h, 37°C, PBS pH 7.4
Description: MLVs were formed as previously described ([20]). Briefly, solutions of 8 mg phosphatidylcholine and 2 mg phosphatidylglycerol in 10 mL chloroform were completely dried to a lipid film (rotation under vacuum).
These preparations were then incubated at 37°C for 4 h under shaking conditions to allow equilibration of compound between the lipid and aqueous fractions. The MLVs were then pelleted and 100 μL of supernatant removed for analysis by radiometric or LC-MS/MS methods as described above. Partitioning into the MLVs was determined according to Eq. 3:3 MLVpartitioning=C0−CS/C0
where C0 is the initial compound concentration (1 μg/mL) and CS is the compound concentration present in the aqueous supernatant at the end of 4 h incubation.

[6] = tested on: P-glycoprotein (Mdr1a/Mdr1b) in isolated perfused mouse lung; assay: Isolated perfused mouse lung (IPML) airway-to-perfusate absorption, Mdr1a/1b (+/+) vs (−/−)
Description: The atria and the lower half of the heart were cut to allow the free flow of perfusate. The lungs were removed and suspended vertically in a custom water-jacketed glass thorax (Radleys, Essex, UK) maintained at 37°C.
Following dosing of compound into the IPML airways serial samples (250 μL) were collected for bioanalysis from the 10 mL recirculating perfusate reservoir. Each sample collected from the reservoir was replaced with an equal volume of fresh warmed, oxygenated perfusate. Upon termination of the experiment the dose solutions, apparatus washings and perfusate samples were collected for mass balance calculations enabling determination of the actual total dose delivered to the lungs.
Radioactive compounds were directly analysed by liquid scintillation counting. Volumes of 50 μL perfusate samples were mixed with 3 mL of Scintisafe 3 Liquid Scintillation Fluid (Fisher, UK) and transferred to vials for scintillation counting using a TriCarb 2900TR (Packard Bioscience, USA).
After accounting for the mass of compound removed at each sample point, plots of the cumulative ‘%deposited dose absorbed’ versus ‘time’ were generated and subject to nonlinear regression analysis according to a first-order absorption one-compartment accumulating model (Eq. 1) to generate estimates for the extent (F) and rate (Ka) of absorption from the IPML airways to the recirculating perfusate.
The data was also subject to standard non-compartmental analysis, specifically Area Under Curve (AUC0–30 min) of ‘%deposited dose absorbed’ versus ‘time’ (units: %Dose.min) and reflecting for the exclusively accumulating perfusate ‘compartment’ the exposure arising from the IPML absorption process alone.

mouse Bcrp = biological target: T1, mouse Bcrp (Mus musculus, UniProt Q7TMS5); assay: Gentest ABC transporter membrane ATPase assay; format: biochemical
T1 construct: purchased Corning (Gentest), Germany
T1 sequence (Q7TMS5 1-657): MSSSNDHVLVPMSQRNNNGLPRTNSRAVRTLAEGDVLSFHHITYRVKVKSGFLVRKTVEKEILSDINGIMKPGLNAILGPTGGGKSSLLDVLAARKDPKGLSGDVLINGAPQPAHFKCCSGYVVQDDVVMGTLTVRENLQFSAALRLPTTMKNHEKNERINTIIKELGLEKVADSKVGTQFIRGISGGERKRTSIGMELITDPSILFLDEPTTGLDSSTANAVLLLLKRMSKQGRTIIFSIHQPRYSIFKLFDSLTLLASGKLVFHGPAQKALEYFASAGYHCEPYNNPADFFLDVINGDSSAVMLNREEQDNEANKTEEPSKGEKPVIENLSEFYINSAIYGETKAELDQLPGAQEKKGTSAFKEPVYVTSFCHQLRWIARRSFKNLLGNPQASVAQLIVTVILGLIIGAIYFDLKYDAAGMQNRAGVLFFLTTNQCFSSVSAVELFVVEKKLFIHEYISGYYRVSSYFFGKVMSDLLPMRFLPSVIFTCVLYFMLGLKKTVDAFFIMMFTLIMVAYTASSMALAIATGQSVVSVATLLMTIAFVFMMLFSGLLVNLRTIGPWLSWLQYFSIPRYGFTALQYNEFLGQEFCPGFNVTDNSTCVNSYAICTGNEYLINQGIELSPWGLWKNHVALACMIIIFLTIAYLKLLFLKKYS
Description: as §1

[7] = tested on: P-gp (Mdr1a/1b) in mouse intestinal segments
Description: as §2, §3

[8] = set-up: method as in PMID 12761811; conditions: cited from earlier work
Caco-2 cell model = tested on: Caco-2 cell model; set-up: method as in PMID 12761811; conditions: cited from earlier work
[9] = set-up: method as in PMID 4654354; conditions: cited from earlier work
[10] = ATPase, 0 indicates no enzyme turnover
[11] = knockout IPML, within 30 minutes
[12] = wild-type IPML, within 30 minutes

Sequence of mouse Mdr1a (P21447 whole entry): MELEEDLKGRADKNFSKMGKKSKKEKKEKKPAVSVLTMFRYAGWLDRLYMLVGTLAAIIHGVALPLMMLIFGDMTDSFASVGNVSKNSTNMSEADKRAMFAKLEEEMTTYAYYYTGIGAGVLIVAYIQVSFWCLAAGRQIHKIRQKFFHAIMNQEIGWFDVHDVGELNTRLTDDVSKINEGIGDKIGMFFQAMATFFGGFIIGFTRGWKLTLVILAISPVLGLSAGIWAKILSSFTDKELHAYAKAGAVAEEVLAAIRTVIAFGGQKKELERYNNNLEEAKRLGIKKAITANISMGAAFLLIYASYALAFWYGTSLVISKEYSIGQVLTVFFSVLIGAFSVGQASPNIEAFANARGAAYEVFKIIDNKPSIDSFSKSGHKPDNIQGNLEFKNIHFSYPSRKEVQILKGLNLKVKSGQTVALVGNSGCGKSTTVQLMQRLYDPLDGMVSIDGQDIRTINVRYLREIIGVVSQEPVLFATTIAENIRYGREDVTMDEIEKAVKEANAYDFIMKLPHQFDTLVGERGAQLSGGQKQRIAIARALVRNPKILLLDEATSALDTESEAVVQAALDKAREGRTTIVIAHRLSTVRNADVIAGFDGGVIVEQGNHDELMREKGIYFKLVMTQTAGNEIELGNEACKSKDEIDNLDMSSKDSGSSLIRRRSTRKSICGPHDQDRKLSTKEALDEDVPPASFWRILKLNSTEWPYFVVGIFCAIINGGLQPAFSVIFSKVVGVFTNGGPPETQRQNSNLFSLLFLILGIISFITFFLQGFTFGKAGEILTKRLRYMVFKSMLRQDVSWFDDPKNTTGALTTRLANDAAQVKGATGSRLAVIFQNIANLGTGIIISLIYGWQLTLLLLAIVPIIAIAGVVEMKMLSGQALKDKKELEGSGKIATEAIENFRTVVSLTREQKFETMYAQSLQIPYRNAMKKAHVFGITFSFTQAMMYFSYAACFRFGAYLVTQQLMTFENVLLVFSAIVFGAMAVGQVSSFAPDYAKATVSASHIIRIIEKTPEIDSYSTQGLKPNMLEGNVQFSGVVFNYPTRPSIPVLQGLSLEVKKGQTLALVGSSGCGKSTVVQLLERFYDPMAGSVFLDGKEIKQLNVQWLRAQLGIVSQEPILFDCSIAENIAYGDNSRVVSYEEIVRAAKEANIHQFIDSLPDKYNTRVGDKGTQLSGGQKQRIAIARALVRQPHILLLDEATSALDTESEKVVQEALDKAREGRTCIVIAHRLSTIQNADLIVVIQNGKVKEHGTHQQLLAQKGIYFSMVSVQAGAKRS
Sequence of mouse Mdr1b (P06795 whole entry): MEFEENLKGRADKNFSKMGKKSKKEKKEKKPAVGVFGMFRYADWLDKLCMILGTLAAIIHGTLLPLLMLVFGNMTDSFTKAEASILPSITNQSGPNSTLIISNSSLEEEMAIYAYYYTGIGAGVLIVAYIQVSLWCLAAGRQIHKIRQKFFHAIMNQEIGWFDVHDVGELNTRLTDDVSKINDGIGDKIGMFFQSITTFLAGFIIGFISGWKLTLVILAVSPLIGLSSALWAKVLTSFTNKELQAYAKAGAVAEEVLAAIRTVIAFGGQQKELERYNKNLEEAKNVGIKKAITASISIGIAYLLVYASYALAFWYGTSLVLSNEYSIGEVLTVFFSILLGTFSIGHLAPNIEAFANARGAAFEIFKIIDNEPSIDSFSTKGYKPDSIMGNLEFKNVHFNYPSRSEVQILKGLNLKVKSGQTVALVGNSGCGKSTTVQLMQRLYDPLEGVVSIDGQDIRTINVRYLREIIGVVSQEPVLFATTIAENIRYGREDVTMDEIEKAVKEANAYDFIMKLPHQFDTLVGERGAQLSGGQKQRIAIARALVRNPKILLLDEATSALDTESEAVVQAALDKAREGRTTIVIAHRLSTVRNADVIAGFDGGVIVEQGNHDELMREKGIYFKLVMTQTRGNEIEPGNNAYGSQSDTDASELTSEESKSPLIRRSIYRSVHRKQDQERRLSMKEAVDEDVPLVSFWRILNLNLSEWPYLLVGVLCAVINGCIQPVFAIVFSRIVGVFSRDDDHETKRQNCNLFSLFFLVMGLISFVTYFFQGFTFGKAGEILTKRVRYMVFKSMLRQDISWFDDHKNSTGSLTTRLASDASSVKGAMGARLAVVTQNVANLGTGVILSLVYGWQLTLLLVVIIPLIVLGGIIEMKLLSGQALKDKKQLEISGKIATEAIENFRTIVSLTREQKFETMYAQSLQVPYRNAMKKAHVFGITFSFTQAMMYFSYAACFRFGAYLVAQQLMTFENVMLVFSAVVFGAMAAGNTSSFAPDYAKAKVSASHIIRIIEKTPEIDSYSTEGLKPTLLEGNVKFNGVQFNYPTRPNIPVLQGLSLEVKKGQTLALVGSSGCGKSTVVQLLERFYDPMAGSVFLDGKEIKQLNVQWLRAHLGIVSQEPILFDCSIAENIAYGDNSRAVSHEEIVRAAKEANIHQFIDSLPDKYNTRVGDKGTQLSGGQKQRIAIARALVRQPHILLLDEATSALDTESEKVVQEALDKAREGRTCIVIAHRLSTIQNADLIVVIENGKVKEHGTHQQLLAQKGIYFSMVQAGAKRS
Sequence of human MDR1 (P08183 whole entry): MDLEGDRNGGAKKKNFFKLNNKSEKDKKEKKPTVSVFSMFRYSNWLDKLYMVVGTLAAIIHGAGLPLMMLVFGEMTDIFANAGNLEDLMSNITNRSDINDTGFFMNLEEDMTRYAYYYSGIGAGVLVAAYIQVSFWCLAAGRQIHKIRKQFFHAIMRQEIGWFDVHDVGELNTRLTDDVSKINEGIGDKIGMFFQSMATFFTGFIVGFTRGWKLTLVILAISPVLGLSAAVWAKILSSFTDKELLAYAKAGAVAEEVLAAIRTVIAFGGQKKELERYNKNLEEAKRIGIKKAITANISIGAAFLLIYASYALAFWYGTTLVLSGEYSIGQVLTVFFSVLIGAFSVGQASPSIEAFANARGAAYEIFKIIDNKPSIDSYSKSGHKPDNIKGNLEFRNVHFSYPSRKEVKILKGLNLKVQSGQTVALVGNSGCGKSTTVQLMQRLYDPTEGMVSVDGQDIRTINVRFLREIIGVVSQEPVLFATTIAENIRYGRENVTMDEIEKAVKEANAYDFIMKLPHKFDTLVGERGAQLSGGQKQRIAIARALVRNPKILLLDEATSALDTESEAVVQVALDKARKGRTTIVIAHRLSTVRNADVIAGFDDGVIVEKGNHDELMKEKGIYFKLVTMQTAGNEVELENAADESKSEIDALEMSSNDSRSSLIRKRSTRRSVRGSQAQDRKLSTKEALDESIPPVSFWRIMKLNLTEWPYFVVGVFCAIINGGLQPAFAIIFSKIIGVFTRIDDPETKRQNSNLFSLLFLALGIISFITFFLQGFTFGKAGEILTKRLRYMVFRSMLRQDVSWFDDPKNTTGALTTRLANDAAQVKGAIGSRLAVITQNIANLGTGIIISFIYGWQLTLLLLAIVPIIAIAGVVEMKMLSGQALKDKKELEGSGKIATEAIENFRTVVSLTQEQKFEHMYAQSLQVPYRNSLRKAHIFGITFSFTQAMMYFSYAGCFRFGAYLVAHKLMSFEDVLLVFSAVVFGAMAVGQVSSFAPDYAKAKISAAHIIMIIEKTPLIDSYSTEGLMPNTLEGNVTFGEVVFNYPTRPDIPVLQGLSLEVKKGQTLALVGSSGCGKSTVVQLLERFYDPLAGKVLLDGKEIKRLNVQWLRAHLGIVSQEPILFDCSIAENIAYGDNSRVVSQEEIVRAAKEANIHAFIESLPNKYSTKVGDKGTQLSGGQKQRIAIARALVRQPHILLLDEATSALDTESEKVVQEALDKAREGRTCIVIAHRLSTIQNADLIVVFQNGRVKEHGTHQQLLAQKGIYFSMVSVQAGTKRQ

Compound: C[C@H]1O[C@@H](O[C@H]2[C@@H](O)C[C@H](O[C@H]3[C@@H](O)C[C@H](O[C@H]4CC[C@@]5(C)[C@H](CC[C@@H]6[C@@H]5C[C@@H](O)[C@]5(C)[C@@H](C7=CC(=O)OC7)CC[C@]65O)C4)O[C@@H]3C)O[C@@H]2C)C[C@H](O)[C@@H]1O [Digoxin, digoxin]
- Vmax (mouse Mdr1a): 26.7 µM/min
- effect of co-administered GF120918 upon pulmonary absorption (P-gp [1]): no effect
- lung levels 1 hr post-instillation, wild-type mice (P-gp (Mdr1a/1b); intra-nasal 976 ng, Mdr1a/1b +/+): 1.57 % of the nominal instilled dos
- lung levels 1 hr post-instillation, knockout mice (P-gp (Mdr1a/1b); intra-nasal 976 ng, Mdr1a/1b -/-): 0.94 % of the nominal instilled dos
- lung levels after 1 h post-instillation (P-gp (Mdr1a/1b); intra-nasal, WT and KO mice): undetectable
- Vmax (human MDR1): 19.7 µM/min
- Vmax (mouse Mdr1b): 44.1 µM/min
- Mdr1a/1b (−/−) Permeability coefficient [2]: 20.94 ± 2.94 cm/s (x10^−6)
- Mdr1a/1b (+/+) Permeability coefficient [2]: 6.04 ± 1.46 cm/s (x10^−6)
- effect of P-gp inhibition (GF120918) upon pulmonary absorption (P-gp [3]): remained unaffected
- LogK^IAM [4]: 0.92
- MLV Partitioning [5]: 0.30
- Mdr1a/1b (+/+) ‘F’ estimate by model fit [95% CI) ([6]; male, mouse, 50 μM): 44.0 [37.2 to 50.8]
- Mdr1a/1b (-/-) ‘F’ estimate by model fit [95% CI) ([6]; male, mouse, 50 μM): 49.8 [38.4 to 61.3]
- Mdr1a/1b (+/+) % Deposited Dose absorbed ([6]; male, mouse, 30 min, 50 μM): 40.1%
- Mdr1a/1b (-/-) % Deposited Dose absorbed ([6]; male, mouse, 30 min, 50 μM): 41.8%
- Vmax (mouse Bcrp; [10]): 0 µM/min

Compound: CC[C@@]1([C@@H]2O[C@@H]([C@H]3O[C@@](O)(CO)[C@H](C)C[C@@H]3C)C[C@@H]2C)CC[C@H]([C@]2(C)CC[C@]3(C[C@H](O)[C@@H](C)[C@@H]([C@@H](C)[C@@H](OC)[C@H](C)C(=O)O)O3)O2)O1 [Monensin, monensin]
- Vmax (mouse Mdr1a): 27.6 µM/min
- Vmax (mouse Mdr1b): 42.3 µM/min
- Mdr1a/1b (−/−) Permeability coefficient [7]: 19.06 ± 2.41 cm/s (x10^−6)
- LogK^IAM [4]: 1.32
- MLV Partitioning [5]: 0.68
- Group (impact of Mdr1a/1b knockout on IPML absorption) [6]: GROUP A
- Mdr1a/1b (-/-) AUC(0-30) ([6]; knockout IPML, % deposited dose absorbed vs time in perfusate): 722 %.min
- Mdr1a/1b (-/-) % Deposited Dose absorbed [6, 11]: 38.9%
- Mdr1a/1b (+/+) ‘F’ estimate by model fit [95% CI) ([6]; male, mouse): 35.8 [28.0 to 43.6]
- Mdr1a/1b (-/-) ‘F’ estimate by model fit [95% CI) ([6]; male, mouse): 33.7 [27.7 to 39.6]
- Mdr1a/1b (+/+) % Deposited Dose absorbed [6, 12]: 36.5%
- Vmax (mouse Bcrp; [10]): 0 µM/min

Compound: COC(=O)c1ccccc1-c1c2ccc(=N)cc-2oc2cc(N)ccc12.Cl [Rh-123, rhodamine-123]
- Km (mouse Mdr1a): 6 µM
- Vmax (mouse Mdr1a): 35.2 µM/min
- effect of co-administered GF120918 upon pulmonary absorption (P-gp [1]): significantly increased
- t^1/2 for the initial decline of lung clearance, KO (P-gp (Mdr1a/1b); mouse, in vivo): 107 min
- t^1/2 for the initial decline of lung clearance, WT (P-gp (Mdr1a/1b); mouse, in vivo): 136 min
- t^1/2 terminal decline phase of lung clearance (P-gp (Mdr1a/1b); mouse, in vivo): 500 min
- Km (human MDR1): 2.2 µM
- Vmax (human MDR1): 36.3 µM/min
- Km (mouse Mdr1b): 2.2 µM
- Vmax (mouse Mdr1b): 29.7 µM/min
- Mdr1a/1b (−/−) Permeability coefficient [2]: 22.55 ± 2.24 cm/s (x10^−6)
- Ratio Permeability (−/−): (+/+) ([2]; intestinal Papp KO:WT): 2.49
- Mdr1a/1b (+/+) Permeability coefficient [2]: 9.06 ± 1.81 cm/s (x10^−6)
- effect of P-gp inhibition (GF120918) upon pulmonary absorption (P-gp [3]): increased
- LogK^IAM [4]: 1.30
- MLV Partitioning [5]: 0.82
- Mdr1a/1b (+/+) AUC(0-30) [6]: 376 %.min
- Mdr1a/1b (+/+) ‘F’ estimate by model fit [95% CI) [6]: 23.5 [19.9 to 27.1]
- Mdr1a/1b (-/-) AUC(0-30) [6]: 712 %.min
- Mdr1a/1b (-/-) ‘F’ estimate by model fit [95% CI) [6]: 30.6 [27.6 to 33.5]
- Group (impact of Mdr1a/1b knockout on IPML absorption) ([6]; categorisation from IPML outcomes): GROUP B
- Mdr1a/1b (-/-) % Deposited Dose absorbed [6, 11]: 33.2%
- Ratio AUCs (-/-) : (+/+) ([6]; mouse): 1.89
- Mdr1a/1b (+/+) % Deposited Dose absorbed [6, 12]: 20.7%
- Km (mouse Bcrp; [10]): 110 µM
- Vmax (mouse Bcrp; [10]): 18.5 µM/min
- interaction with Bcrp (ATP turnover) (mouse Bcrp; mouse Bcrp membrane model): showed evidence of interactions with Bcrp

Compound: O=C(O)c1cc(=O)c2c(OCC(O)COc3cccc4oc(C(=O)O)cc(=O)c34)cccc2o1 [cromolyn]
- permeability across the lung [8]: high permeability
- Papp (Caco-2 cell model): < 1 ×10⁻⁶ cm/s

Compound: CN(C)C(=O)C(CCN1CCC(O)(c2ccc(Cl)cc2)CC1)(c1ccccc1)c1ccccc1 [loperamide]
- effect of P-gp inhibition (GF120918) upon pulmonary absorption (P-gp [3]): affected

Compound: OC[C@@H](O)[C@@H](O)[C@H](O)[C@H](O)CO [mannitol]
- absorbed from the lung [9]: 50 % of administered dose
- absorbed from the small intestine [9]: < 2%
- Mdr1a/1b (+/+) % Deposited Dose absorbed ([6]; male, FVB/B6 Mdr1a/1b(+/+) wild-type, mouse, 30 min, 50 μM): 44.3 ± 9.4%
- Mdr1a/1b (-/-) % Deposited Dose absorbed ([6]; male, FVB/B6 Mdr1a/1b(−/−) knockout, mouse, 30 min, 50 μM): 43.2 ± 10.2%

Compound: CC(C)(C)NCC(O)c1cc(O)cc(O)c1 (stereo not drawn) [terbutaline]
- permeability across the lung [8]: high permeability
- Papp (Caco-2 cell model): < 1 ×10⁻⁶ cm/s

Compound: cyanocobalamin
- permeability across the lung [8]: high permeability
- Papp (Caco-2 cell model): < 1 ×10⁻⁶ cm/s

Compound: inulin
- absorbed from the lung [9]: 17 % of administered dose
- absorbed from the small intestine [9]: < 2%
